Measured values published in patent US9309231B2, “Bridged ring compounds as hepatitis C virus (HCV) inhibitors and pharmaceutical applications thereof” (SUNSHINE LAKE PHARMA CO., LTD, priority 2012, dated 2016).
pEC50: −log10 of the molar value.

Legend:
[1] = system: HCV GT1b replicon cells; test: HCV replicon assay, GT1b replicon cells; assay type: cell-based; settings: Hepatitis C virus, 72 hours incubation, luciferase reporter or NEO gene qPCR readout, read-out: EC50 against HCV 1b genotype
Description: (§1) An HCV Replicon assay was utilized in the present disclosure, and was prepared, developed and validated as described in Science, 1999, 285 (5424), 110-3 and J. Virol., 2003, 77 (5), 3007-19.
(§2) HCV GT1a, GT1b and GT2a replicon cells were used to test the currently described compound series as well as wild-type cells HCV 1b and resistant cells Y^93H, L31F, P32L and I302V. GT1a and CT1b are HCV Replicon System which is transfected HCV 1a, 1b genotype respectively.
(§3) 1. Testing EC50 of the Compounds by Luciferase Assay
(§4) The GT1b cells and GT1a cells were seeded into 96-well plates (8,000 cells in 125 μl/well) respectively; each compound was diluted to desired concentration using 5-fold serial dilutions protocol, 10 dose in duplicate, and added to wells with POD™ 810 Plate Assembler. The final concentration of DMSO was 0.5%; the plates were incubated in a CO2 incubator for 72 hours; after that, 40 μl of Luciferase assay substrate (Promega Bright-Glo) was added to each well, and detected by a chemiluminescence detection system (Topcount Microplate Scintillation and Luminescence Counter) 5 minutes later; data analysis.
(§5) 2. Testing EC50 of the Compounds by Detecting Antibiotic G418 Resistance Gene NEO Gene
(§6) The GT1b cells and GT1a cells were seeded into 96-well plates (8,000 cells in 125 μl/well) respectively; each compound was diluted to desired concentration using 5-fold serial dilutions protocol, 10 dose in duplicate, and added to wells with POD™ 810 Plate Assembler., the final concentration of DMSO was 0.5%; the cells were incubated in a CO2 incubator for 72 hours; quantitative PCR. • Sample preparation: the supernatant was removed, 100 μl of FCW buffer solution was added to each well, washed carefully and discarded the solution; 50 μl of lysate FCP was added to each well, the cells was lysed as PCR template and diluted with DEPC water. • Quantitative PCR: preparation of reaction mixture according to PCR system; the reaction mixture was dispensed into a 384-well PCR reaction plate (specially for quantitative); and a standard template which was diluted in proportion was distributed into the plate; and the sample template was distributed into the plate; then the 384-well plate was sealed with closure plate membrane; the […] PCR machine was operated by procedures; data analysis.
(§7) 3. Data Processing: The EC50 Values of Compounds were Analyzed by GraphPad Prism Software.

[2] = system: HCV GT1a replicon cells; test: HCV replicon assay, GT1a replicon cells; assay type: cell-based; settings: Hepatitis C virus, 72 hours incubation, luciferase reporter or NEO gene qPCR readout, read-out: EC50 against HCV 1a genotype
Description: as §1, §2, §3, §4, §5, §6, §7

Row | SMILES | pEC50 [1] | pEC50 [2]
1 | COC(=O)N[C@H](C(=O)N1CCC[C@H]1c1nc2ccc(-c3ccc(-c4ccc(-c5cnc([C@@H]6C7CCC(C7)N6C(=O)[C@@H](NC(=O)OC)C(C)C)[nH]5)cc4)c4c3C3CCC4C3)cc2[nH]1)C(C)C (stereo partly drawn) [Example 1] | 11.10 | 10.54
2 | COC(=O)N[C@H](C(=O)N1CCC[C@H]1c1nc2ccc(-c3ccc(-c4ccc(-c5cnc([C@@H]6CC7CC7N6C(=O)[C@@H](NC(=O)OC)C(C)C)[nH]5)cc4)c4c3C3CCC4C3)cc2[nH]1)C(C)C (stereo partly drawn) [Example 3] | 10.89 | 10.28
3 | COC(=O)N[C@H](C(=O)N1CCC[C@H]1c1ncc(-c2ccc(-c3ccc(-c4cnc([C@@H]5CCCN5C(=O)[C@@H](NC(=O)OC)C(C)C)[nH]4)c4c3C3CCC4C3)c(F)c2)[nH]1)C(C)C (stereo partly drawn) [Example 4] | 11.15 | 9.30
4 | COC(=O)N[C@H](C(=O)N1CCC[C@H]1c1ncc(-c2ccc(-c3ccc(-c4ccc(-c5cnc([C@@H]6CCCN6C(=O)[C@@H](NC(=O)OC)C(C)C)[nH]5)cc4)c4c3C3CCC4C3)cc2)[nH]1)C(C)C [Example 5] | 10.01 | 8.98
5 | COC(=O)N[C@H](C(=O)N1CCC[C@H]1c1nc2cc(-c3ccc(-c4ccc5[nH]c([C@@H]6CCCN6C(=O)[C@@H](NC(=O)OC)C(C)C)nc5c4)c4c3C3CCC4C3)ccc2[nH]1)C(C)C [Example 6] | 11.22 | 10.33
6 | COC(=O)N[C@@H](C)C(=O)N1CCC[C@H]1c1ncc(-c2ccc(-c3ccc(-c4ccc5[nH]c([C@@H]6CCCN6C(=O)[C@H](C)NC(=O)OC)nc5c4)c4c3C3CCC4C3)cc2)[nH]1 (stereo partly drawn) [Example 7] | 10.12 | 10.03
7 | COC(=O)N[C@H](C(=O)N1CCC[C@H]1c1nc2cc(-c3ccc(-c4ccc(-c5cnc([C@H]6CCCN6C(=O)[C@@H](NC(=O)OC)C(C)C)[nH]5)cc4)c4c3C3CCC4C3)ccc2[nH]1)c1ccccc1 (stereo partly drawn) [Example 8] | 10.72 | 10.48
8 | CCC(C)[C@H](NC(=O)OC)C(=O)N1CCC[C@H]1c1nc2cc(-c3ccc(-c4ccc(-c5cnc([C@@H]6CCCN6C(=O)[C@@H](NC(=O)OC)C(C)C)[nH]5)cc4)c4c3C3CCC4C3)ccc2[nH]1 (stereo partly drawn) [Example 9] | 11.05 | 9.98
9 | COC(=O)N[C@H](C(=O)N1CCC[C@H]1c1ncc(-c2ccc(-c3ccc(-c4cnc([C@@H]5CCCN5C(=O)[C@@H](NC(=O)OC)C5CCCCC5)[nH]4)c4c3C3CCC4C3)cc2)[nH]1)C1CCCCC1 (stereo partly drawn) [Example 10] | 10.89 | 9.43
10 | COC(=O)N[C@H](C(=O)N1CCC[C@H]1c1ncc(-c2ccc(-c3nnc(-c4ccc5[nH]c([C@@H]6CCCN6C(=O)[C@@H](NC(=O)OC)C(C)C)nc5c4)c4c3C3CCC4CC3)cc2)[nH]1)C(C)C [Example 11] | 10.64 | 10.31
11 | COC(=O)N[C@H](C(=O)N1CCC[C@H]1c1ncc(-c2ccc(-c3nnc(-c4ccc5[nH]c([C@@H]6CCCN6C(=O)[C@@H](NC(=O)OC)C(C)C)nc5c4)c4c3C3CCC4C3)cc2)[nH]1)C(C)C (stereo partly drawn) [Example 12] | 9.43 | 9.18
12 | COC(=O)N[C@H](C(=O)N1C[C@@H](F)CC1c1ncc(-c2ccc(-c3ccc(-c4cnc(C5C[C@H](F)CN5C(=O)[C@@H](NC(=O)OC)C(C)C)[nH]4)c4c3C3CCC4C3)cc2)[nH]1)C(C)C (stereo partly drawn) [Example 13] | 10.47 | 9.28
13 | COC(=O)N[C@H](C(=O)N1CC(F)(F)C[C@H]1c1ncc(-c2ccc(-c3ccc(-c4cnc([C@@H]5CC(F)(F)CN5C(=O)[C@@H](NC(=O)OC)C(C)C)[nH]4)c4c3C3CCC4C3)cc2)[nH]1)C(C)C (stereo partly drawn) [Example 14] | 11.22 | 9.31
14 | COC(=O)N[C@H](C(=O)N1CCC[C@H]1C(=O)Nc1cccc(-c2ccc(-c3ccc(-c4cnc([C@@H]5CCCN5C(=O)[C@@H](NC(=O)OC)C(C)C)[nH]4)cc3)c3c2C2CCC3C2)c1)C(C)C (stereo partly drawn) [Example 16] | 11.05 | 8.46
15 | COC(=O)N[C@H](C(=O)N1CCC[C@H]1c1ncc(-c2ccc(-c3ccc(-c4ccc5nc([C@@H]6CCCN6C(=O)[C@@H](NC(=O)OC)C(C)C)[nH]c5c4)c4c3C3CCC4C3)cc2)[nH]1)C(C)C (stereo partly drawn) [Example 17] | 11.15 | 9.12
